Experimental data from patent US9981928B2, “Aryl sulfide derivatives and aryl sulfoxide derivatives as acaricides and insecticides” (BAYER CROPSCIENCE AKTIENGESELLSCHAFT, priority 2013, dated 2018).
Read-outs that look alike come from different tables or passages of the source.

What was measured:
[1] = system: greenhouse red spider mite (Tetranychus urticae); assay: Tetranychus urticae spray test, OP-resistant (TETRUR), bean leaf disks; format: in vivo; details: for pest or weed control at 500 g/ha: Tetranychus urticae, foliar, 144 h, read-out: efficacy in %
Method in brief: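 Efficacy (% mites killed) read 6 days after spraying infested Phaseolus vulgaris leaf disks. Compound preparation: acetone and dimethylformamide solvent, made up in water with 1000 ppm alkylaryl polyglycol ether emulsifier; OP-resistant mite strain, all life stages.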

[2] = system: southern root-knot nematode (Meloidogyne incognita); assay: Meloidogyne incognita test (MELGIN); format: in vivo; details: lettuce in sand; application rate 20 ppm; after 14 days
Method: Meloidogvne incognita test (MELGIN)
Solvent: 125.0 parts by weight of acetone
To produce a suitable preparation of active compound, 1 part by weight of active compound is mixed with the stated amount of solvent and the concentrate is diluted with water to the desired concentration.
Vessels are filled with sand, active compound solution, an egg/larvae suspension of the southern root-knot nematode (Meloidogyne incognita) and lettuce seeds. The lettuce seeds germinate and the plants develop. The galls develop on the roots.
After 14 days, the nematicidal efficacy in % is determined by the formation of galls. 100% means that no galls were found; 0% means that the number of galls on the treated plants corresponds to the untreated control.

[3] = log P determination by HPLC on reversed-phase columns (C 18), analogously to OECD Guideline 117; format: physicochemical; details: for logP (HCOOH): LC-MS in the acidic range, pH 2.7, 0.1% aqueous formic acid / acetonitrile; for logP (HCOOH) / logP (neutral): HPLC reversed-phase C 18; for logP (neutral): LC-MS in the neutral range, pH 7.8, 0.001 molar aqueous ammonium hydrogencarbonate / acetonitrile; for chromatographic logP: reversed-phase C18 HPLC column
Method in brief: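 Reversed-phase C18 HPLC per OECD 117 with LC-MS detection and a linear 10→95% acetonitrile gradient. Acidic log P run at pH 2.7 with 0.1% formic acid in both eluents. Neutral log P run at pH 7.8 with 0.001 M aqueous ammonium hydrogencarbonate.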

[4] = bean leaf disks, application rate 500 g/ha, after 6 days
[5] = acidic range, pH 2.7, 0.1% aqueous formic acid and acetonitrile, read-out: log P[a] / log P(HCOOH)
[6] = neutral range, pH 7.8, 0.001 molar aqueous ammonium hydrogencarbonate and acetonitrile, read-out: log P[b] / log P(neutral)

SMILES | efficacy in % [1, 4] | logP (HCOOH) [3] | logP (neutral) [3] | also measured
C=CCn1c(=O)n(C)n(-c2cc([S+]([O-])CC(F)(F)F)c(C)cc2F)c1=O (stereo not drawn) [Example 80] | 100% | 2.07 | 2.03 | nematicidal efficacy in % (formation of galls) [2]: 90%
Cc1cc(C)c([S+]([O-])CC(F)(F)F)cc1-n1c(=O)n(C)c(=O)n1C (stereo not drawn) [Example 33] | 90% | 1.75 | 1.70 | nematicidal efficacy in % (formation of galls) [2]: 90%
Cn1c(=O)n(C)n(-c2cc([S+]([O-])CC(F)(F)F)c(Br)cc2F)c1=O (stereo not drawn) [Example 69] |  | 2.01 | 1.98 | nematicidal efficacy in % (formation of galls) [2]: 90%
Cc1cc(F)c(-n2c(=S)n(C3CC3)c(=S)n2C)cc1SCC(F)(F)F [Example 182, 4-cyclopropyl-1-{2-fluoro-4-methyl-5-[(2,2,2-trifluoroethyl)sulfanyl]phenyl}-2-methyl-1,2,4-triazolidine-3,5-dithione] |  |  |  | nematicidal efficacy in % (formation of galls) [2]: 90%; chromatographic logP [3, 5]: 3.83; chromatographic logP [3, 6]: 3.76
Cn1c(=O)n(C)n(-c2cc([S+]([O-])CC(F)(F)F)c(F)cc2F)c1=O (stereo not drawn) [Example 70] |  | 1.64 | 1.59 | nematicidal efficacy in % (formation of galls) [2]: 90%
Cn1c(=O)n(C2CC2)c(=O)n1-c1ccc(C#N)c(SCC(F)(F)F)c1 [Example 44] |  | 2.53 | 2.45 | nematicidal efficacy in % (formation of galls) [2]: 90%
Cn1c(=O)n(C2CC2)c(=O)n1-c1ccc(Br)c([S+]([O-])CC(F)(F)F)c1 (stereo not drawn) [Example 45] |  | 2.27 | 2.24 | nematicidal efficacy in % (formation of galls) [2]: 90%
Cc1cc(F)c(-n2c(=O)n(C)n(C)c2=O)cc1[S+]([O-])CC(F)(F)F (stereo not drawn) [Example 117, 4-{2-Fluoro-4-methyl-5-[(2,2,2-trifluoroethyl)sulfinyl]phenyl}-1,2-dimethyl-1,2,4-triazolidine-3,5-dione] |  |  |  | pest or weed control at 500 g/ha [1, 4]: 90%; chromatographic logP [3, 5]: 1.54; chromatographic logP [3, 6]: 1.5
CCn1c(=O)n(C)c(=O)n1-c1cc(SCC(F)(F)F)c(C)cc1F [Example 97] | 100% | 2.91 | 2.83 | 
COc1ccc(-n2c(=O)n(C)c(=O)n2C)cc1[S+]([O-])CC(F)(F)F (stereo not drawn) [Example 32] | 100% | 1.58 | 1.54 | 
Cc1cc(F)c(-n2c(=O)n(C)n(CC3CC3)c2=O)cc1SCC(F)(F)F [Example 126] | 90% | 3.15 |  | 
Cc1cc(F)c(N2CCCC2=NCC(F)(F)F)cc1[S+]([O-])CC(F)(F)F (stereo not drawn) [Example 3, 2,2,2-Trifluoro-N-(1-{2-fluoro-4-methyl-5-[(2,2,2-trifluoroethyl)sulfinyl]phenyl}pyrrolidin-2-ylidene)ethanamine] |  |  |  | pest or weed control at 500 g/ha [1, 4]: 90%; chromatographic logP [3, 5]: 1.02; chromatographic logP [3, 6]: 2.88
Cc1cc(C)c(N2CCNC2=O)cc1SCC(F)(F)F [Example 1, 1-{2,4-Dimethyl-5-[(2,2,2-trifluoroethyl)sulfanyl]phenyl}imidazolidin-2-one] |  |  |  | pest or weed control at 500 g/ha [1]: 90%; chromatographic logP [3, 5]: 2.43; chromatographic logP [3, 6]: 2.39
CCn1c(=O)n(-c2cc(SCC(F)(F)F)c(C)cc2F)n(C(C)(C)C)c1=O [Example 142] | 100% | 4.19 | 4.13 | 
Cc1cc(F)c(N2C(=O)CN(Cc3ccccc3)C2=O)cc1[S+]([O-])CC(F)(F)F (stereo not drawn) [Example 205] | 90% | 2.60 | 2.52 | 
Cc1cc(F)c(-n2c(=O)n(-c3ccccc3)c(=O)n2CC(F)(F)F)cc1[S+]([O-])CC(F)(F)F (stereo not drawn) [Example 167] | 90% | 3.05 | 3.01 | 
Cc1cc(F)c(N2C(=O)C3(CCC3)C(=O)N2C)cc1[S+]([O-])CC(F)(F)F (stereo not drawn) [Example 180] | 100% | 1.99 | 1.97 | 
Cc1cc(F)c(N2C(=O)C(=O)N(CC(C)(C)C)C2=S)cc1[S+]([O-])CC(F)(F)F (stereo not drawn) [Example 195] | 90% | 3.85 | 3.79 | 
CCn1c(=O)n(-c2ccccc2)c(=O)n1-c1cc(SCC(F)(F)F)c(C)cc1F [Example 87, 1-Ethyl-2-{2-fluoro-4-methyl-5-[(2,2,2-trifluoroethyl)sulfanyl]phenyl}-4-phenyl-1,2,4-triazolidine-3,5-dione] |  |  |  | pest or weed control at 500 g/ha [1, 4]: 90%; chromatographic logP [3, 5]: 3.71; chromatographic logP [3, 6]: 3.69

SMILES | efficacy in % [1, 4] | logP (HCOOH) [3] | logP (neutral) [3] | also measured
Cc1cc(F)c(N2C(=O)C(=O)N(CC(C)(C)C)C2=S)cc1SCC(F)(F)F [Example 192] | 90% | 4.89 | 4.80 | 
CCn1c(=O)n(-c2cc(SCC(F)(F)F)c(C)cc2F)c(=O)n1CC [Example 118, 1,2-Diethyl-4-{2-fluoro-4-methyl-5-[(2,2,2-trifluoroethyl)sulfanyl]phenyl}-1,2,4-triazolidine-3,5-dione] |  |  |  | pest or weed control at 500 g/ha [1, 4]: 100%; chromatographic logP [3, 5]: 3.03
CCn1c(=O)n(C)c(=O)n1-c1ccc(C)c(SCC(F)(F)F)c1 [Example 51] | 90% | 2.82 | 2.83 | 
Cn1c(=O)n(C2CC2)c(=O)n1-c1ccc(Br)c(SCC(F)(F)F)c1 [Example 46] | 100% | 3.11 | 3.05 | 
CCC1(CC)C(=O)N(C)N(c2cc([S+]([O-])CC(F)(F)F)c(C)cc2F)C1=O (stereo not drawn) [Example 176] | 100% | 2.37 | 2.31 | 
Cc1cc(F)c(-n2c(=O)n(C(C)(C)C)c(=O)n2C)cc1SCC(F)(F)F [Example 94] |  | 3.85 | 3.82 | efficacy in % ([1]; bean leaf disks, application rate 100 g/ha, after 6 days): 90%
Cc1cc(F)c(N2C(=O)CSC2=NCC(F)(F)F)cc1SCC(F)(F)F [Example 11, 3-{2-Fluoro-4-methyl-5-[(2,2,2-trifluoroethyl)sulfanyl]phenyl}-2-[(2,2,2-trifluoroethyl)imino]-1,3-thiazolidin-4-one] |  |  |  | pest or weed control at 500 g/ha [1, 4]: 90%; chromatographic logP [3, 5]: 3.6; chromatographic logP [3, 6]: 3.5
Cc1cc(F)c(-n2c(=O)n(CC(F)F)c(=O)n2CC(F)(F)F)cc1SCC(F)(F)F [Example 156] | 90% | 3.44 | 3.51 | 
Cc1ccc(-n2c(=O)n(C)c(=O)n2-c2ccc(C)c(SCC(F)(F)F)c2)cc1SCC(F)(F)F [Example 56] | 90% | 4.34 | 4.05 | 
Cc1cc(F)c(-n2c(=O)n(-c3ccccc3)c(=O)n2CC(F)(F)F)cc1SCC(F)(F)F [Example 155] | 90% | 3.93 | 3.90 | 
CCn1c(=O)n(-c2cc(SCC(F)(F)F)c(C)cc2F)c(=O)n1C [Example 122, 1-Ethyl-4-{2-fluoro-4-methyl-5-[(2,2,2-trifluoroethyl)sulfanyl]phenyl}-2-methyl-1,2,4-triazolidine-3,5-dione] |  |  |  | pest or weed control at 500 g/ha [1, 4]: 90%; chromatographic logP [3, 5]: 2.71
CCCn1c(=O)n(C2CC2)c(=O)n1-c1cc([S+]([O-])CC(F)(F)F)c(C)cc1F (stereo not drawn) [Example 172] | 90% | 2.46 | 2.42 | 
CCn1c(=O)n(CC)n(-c2ccc(C)c([S+]([O-])CC(F)(F)F)c2)c1=O (stereo not drawn) [Example 138] | 90% | 2.20 | 2.19 | 
Cc1cc(F)c(N2C(=O)N(C)C(C)(C)C2=O)cc1[S+]([O-])CC(F)(F)F (stereo not drawn) [Example 17, 3-{2-Fluoro-4-methyl-5-[(2,2,2-trifluoroethyl)sulfinyl]phenyl}-1,5,5-trimethylimidazolidine-2,4-dione] |  |  |  | pest or weed control at 500 g/ha [1, 4]: 100%; chromatographic logP [3, 5]: 2.04; chromatographic logP [3, 6]: 2.01
Cn1c(=O)n(C)n(-c2ccc(Br)c([S+]([O-])CC(F)(F)F)c2)c1=O (stereo not drawn) [Example 67] | 100% | 2.05 | 2.02 | 
CCCCN1CC(=O)N(c2cc(SCC(F)(F)F)c(C)cc2F)C1=O [Example 202] | 100% | 3.39 | 3.35 | 
Cc1cc(C)c([S+]([O-])CC(F)(F)F)cc1N1C(=O)C(=O)N(CC(F)(F)F)C1=S (stereo not drawn) [Example 188] | 90% | 3.18 |  | 
C=CCn1c(=O)n(-c2cc([S+]([O-])CC(F)(F)F)c(C)cc2F)c(=O)n1CC=C (racemic) [Example 120] | 90% | 2.46 |  | 
